Reference: ChEMBL document CHEMBL1149624, “9-Substituted berberine derivatives as G-quadruplex stabilizing ligands in telomeric DNA” (Bioorg Med Chem, 2007)

Legend:
[1] = organism: Homo sapiens; experiment: Binding affinity to human telo21 G-quadruplex DNA assessed as thermal stability in tris-HCl buffer at pH 7.4
[2] = organism: Homo sapiens; experiment: Binding affinity to human telo21 G-quadruplex DNA assessed as change in thermal stability in tris-HCl buffer at pH 7.4
[3] = Inhibition of amplification in human telo21 G-quadruplex DNA by PCR stop assay
[4] = Inhibition of telomerase expressed in MCF7 cells by TRAP assay; type: cell-based, Homo sapiens

SMILES	Tm [1]	ΔTm [2]	IC50 [3]	IC50 [4]
CCN(CC)CCOc1c(OC)ccc2cc3[n+](cc12)CCc1cc2c(cc1-3)OCO2	57 °C	16.9 °C	2.3 µM	25 µM
COc1ccc2cc3[n+](cc2c1OCCCN1CCNCC1)CCc1cc2c(cc1-3)OCO2	63.1 °C	23 °C	0.7 µM	7.5 µM
COc1ccc2cc3[n+](cc2c1OCCN(C(C)C)C(C)C)CCc1cc2c(cc1-3)OCO2	51.7 °C	11.6 °C	2.3 µM	25 µM
COc1ccc2cc3[n+](cc2c1OC)CCc1cc2c(cc1-3)OCO2 [BERBERINE CHLORIDE]	44 °C	3.9 °C	2.1 µM	75 µM
